Laboratory results published in US12728111B2, “Electrophilic compounds and electrophilic prodrugs for treating aneurysm” (University of Pittsburgh—Of the Commonwealth System of …, priority 2020, dated 2026).

Columns and labels:
EPRAP/p105 interaction = target: T1, EPRAP/p105 interaction (Homo sapiens, UniProt P19838+Q9BSK4); test: Co-IP of HA-tagged EPRAP (FEM1A) and p105; format: cell-based; settings: up to 5 μM; cells overexpressing HA-tagged EPRAP (FEM1A) and p105
T1 construct: Addgene (p105 plasmid) #HG21487-NY; plasmid #23288
T1 sequence (Q9BSK4 1-669): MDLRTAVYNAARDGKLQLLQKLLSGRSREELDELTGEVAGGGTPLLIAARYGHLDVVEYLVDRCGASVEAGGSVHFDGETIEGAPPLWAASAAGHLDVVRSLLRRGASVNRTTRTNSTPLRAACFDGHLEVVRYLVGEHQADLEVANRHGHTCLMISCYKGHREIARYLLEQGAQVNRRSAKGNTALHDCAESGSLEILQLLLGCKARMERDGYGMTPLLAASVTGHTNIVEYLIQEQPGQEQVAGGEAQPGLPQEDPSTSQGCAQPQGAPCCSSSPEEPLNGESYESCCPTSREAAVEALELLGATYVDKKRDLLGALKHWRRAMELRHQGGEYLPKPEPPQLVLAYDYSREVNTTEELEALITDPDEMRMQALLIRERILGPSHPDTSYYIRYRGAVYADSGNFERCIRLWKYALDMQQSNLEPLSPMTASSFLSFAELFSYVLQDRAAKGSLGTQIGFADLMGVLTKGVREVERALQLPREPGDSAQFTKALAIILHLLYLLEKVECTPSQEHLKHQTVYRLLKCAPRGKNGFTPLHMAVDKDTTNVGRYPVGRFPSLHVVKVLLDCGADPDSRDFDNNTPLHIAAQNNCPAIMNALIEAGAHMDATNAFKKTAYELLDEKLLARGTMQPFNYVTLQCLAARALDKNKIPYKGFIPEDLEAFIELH
T1 sequence (P19838 1-968): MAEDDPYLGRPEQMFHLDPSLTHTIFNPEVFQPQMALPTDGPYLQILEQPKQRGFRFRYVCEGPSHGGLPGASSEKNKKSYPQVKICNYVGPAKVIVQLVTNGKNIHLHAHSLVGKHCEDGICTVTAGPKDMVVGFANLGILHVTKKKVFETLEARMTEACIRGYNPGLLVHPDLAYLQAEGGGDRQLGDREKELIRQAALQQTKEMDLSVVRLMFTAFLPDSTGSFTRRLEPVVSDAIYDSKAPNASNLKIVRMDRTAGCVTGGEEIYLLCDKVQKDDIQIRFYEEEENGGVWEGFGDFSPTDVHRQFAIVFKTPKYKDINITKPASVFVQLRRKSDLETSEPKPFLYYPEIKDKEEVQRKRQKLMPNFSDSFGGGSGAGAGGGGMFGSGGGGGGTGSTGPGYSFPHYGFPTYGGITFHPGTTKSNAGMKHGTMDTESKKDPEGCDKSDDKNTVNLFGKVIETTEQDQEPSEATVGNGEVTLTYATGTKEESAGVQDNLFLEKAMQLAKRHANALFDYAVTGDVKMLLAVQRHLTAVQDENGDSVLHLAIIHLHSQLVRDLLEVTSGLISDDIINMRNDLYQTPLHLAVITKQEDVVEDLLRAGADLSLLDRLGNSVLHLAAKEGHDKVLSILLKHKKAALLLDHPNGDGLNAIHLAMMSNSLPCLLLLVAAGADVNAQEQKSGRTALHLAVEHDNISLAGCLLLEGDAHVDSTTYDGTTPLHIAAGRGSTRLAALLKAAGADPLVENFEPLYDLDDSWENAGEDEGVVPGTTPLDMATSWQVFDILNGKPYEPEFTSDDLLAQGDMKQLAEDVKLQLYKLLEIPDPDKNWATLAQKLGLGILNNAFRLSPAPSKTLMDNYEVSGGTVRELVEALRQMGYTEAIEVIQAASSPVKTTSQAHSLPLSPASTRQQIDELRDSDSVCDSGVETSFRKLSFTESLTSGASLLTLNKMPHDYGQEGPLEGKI
Text: Nuclear/cytoplasm protein extraction, co-Immunoprecipitation and immunoblotting NE-PER™ Nuclear and Cytoplasmic Extraction Reagents (#78835, ThermoFisher) were used for nuclear and cytoplasmic protein extraction. For Co-IP, cells were lysed using Cell Lysis Buffer (#9803, CST) supplemented with PMSF (#8553, CST), immunoprecipitated using Protein G Magnetic Beads (#7024, CST) and antibodies against HA (#AE008, ABclonal) or p50/p105(#13586, CST) following the manufacture's protocol. For immunoblot, protein extracts were resolved in SDS-PAGE gels and transferred to nitrocellulose membranes. Membranes were blocked by 5% BSA and incubated with the primary antibody at 4° C. overnight followed by incubation with fluorescence conjugated secondary antibody for 1 h at room temperature. Band intensity was collected with the Odyssey® CLx Imaging System and quantified using Image Studio™ Lite.

circulating MCP1 and IL6 = test: Circulating cytokine ELISA in AAA model mice; format: in vivo, mouse
Text: FIG. 2. […] (A) Quantification of gene expression levels in the mice suprarenal aorta region by real-time PCR (n=3 to 4). (B, C) Serum cytokines levels measured by ELISA (n=8 to 11). (D) FACS of single cells isolated from the mice suprarenal aorta region. Each sample is the pool of cells from three mice (n=3). (E, F) Quantification of the percentage of CD45+ leukocytes and CD64+, CD11c+M1-like macrophages in total cells from the FACS analysis. Ordinary one-way ANOVA followed by Tukey's test was performed for (A), (E) and (F). For ELISA in (B) and (C), to avoid the effect of the non-detected data point, a non-parametric Kruskal-Wallis test followed by Dunn's multiple comparisons was performed by adding zero to the missing data point. Data presented as mean±SEM. A p<0.05 for both the main test and post hoc test was considered statistically significant.
MCP1, TNFα and IL6 levels in mouse plasma were measured by ELISA performed by the Cancer Center Immunology Core at the University of Michigan.

MMP9 = test: Gelatin zymography in BMDMs, MMP9; format: cell-based, mouse; settings: 2.5 μM, 12 h
Procedure: FIG. 4. NO2—OA inhibits PGE2-dependent EP4 cAMP downstream signaling. (A) Three parameters nonlinear regression of EP4 global fitting dose-response curve. […] (B) HTRF assay of cAMP-Gs coupled receptor. […] (D) Representative figure of gelatin zymography indicating MMP 2/9 activity. BMDMs were incubated with L-902,688 (100 nM) plus vehicle, OA (2.5 μM) or NO2—OA (2.5 μM) for 12 h, and MMP 2&9 activity was measured by gelatin zymography. For (A) and (B), three or four parameters, global or separate fitting, constraints, and the significance of EC50 were determined in Prism. Data presented as mean±SEM. A p<0.05 was considered statistically significant.
Freshly differentiated BMDMs were cultured in the bone marrow macrophage-differentiation media until 80% confluence. […] Then, the supernatant was collected and centrifuged to remove any residual debris. Measurement of MMP2 and MMP9 activity was performed by running the supernatant (using detergent-free loading buffer) in 1% gelatin gel, followed by staining with Coomassie blue.

- effect on the EPRAP/p105 interaction (EPRAP/p105 interaction): no significant effect
Compound: CCCCCCCCC(=CCCCCCCCC(=O)O)[N+](=O)[O-] [NO2—OA, 10-nitro-octadec-9-enoic acid]
- protein level of circulating IL6 (circulating MCP1 and IL6): significantly decreased
- protein level of circulating MCP1 (circulating MCP1 and IL6): significantly decreased
- PGE2-upregulated MMP9 (gelatin zymography) (MMP9): significantly diminished
